We go through seven compounds from US6124280A, “Substituted phenols as novel calcium channel blockers” (Warner-Lambert Company, priority 1998, dated 2000).

Counter-ions that a name gives are not always drawn. Positions of bridges follow the written chain, without caps; N, C: chain ends. No end group written: not given here.

In assay [1] the target is T1, N-type voltage gated calcium channels (chicken brain synaptosomes) (Gallus gallus, UniProt A0A8V1AJW5).
T1 construct: K+-stimulated 45Ca influx; auxiliary alpha2delta and beta subunits present but not identified
The experiment in a line: Chick Whole Brain Synaptosomal ^45 Calcium Flux Assay (inhibition of potassium stimulated calcium influx). The class given is biochemical. The note with it: 20 mM KCl stimulated minus 3 mM KCl basal; 5 min drug pre-incubation, room temperature; 30-second incubation; read-out: Inhibition of ^45 Ca^+2 Influx in Chick Synaptosomes IC50. The procedure: (§1) To measure interaction at the N-type calcium channel and calcium flux inhibition, the effects of the calcium channel blockers were measured in the assays described below.
A compound is assessed at various concentrations for its ability to inhibit this potassium stimulated calcium influx.
One- to five-week old chicks were killed by decapitation and whole brain was removed. The brainstem was discarded, and the remaining brain tissue was placed in ice-cold sucrose buffer (composition: 320 mM sucrose, 5.0 mM TRIS base, 0.1 mM EDTA, pH adjusted to 7.3 with HCl). The total wet weight of pooled brain tissue was determined, and the tissue was homogenized in 10 mL sucrose buffer per gram wet weight. A Potter S-type homogenizer (B. Braun Co.) with a glass tube and teflon pestle was used. Five strokes at 400 rpm were followed by four strokes at 800 rpm. The homogenate was poured into cold centrifuge tubes and centrifuged for 10 minutes at 3000 rpm (1,075 g) in a refrigerated 4° C. RC-5 centrifuge (Sorvall) using an SS-34 rotor. The supernatant was collected and centrifuged at 11,500 rpm (15,800 g) for 10 minutes. The supernatant was discarded, and the pellet was resuspended in 1 mL sucrose buffer. Cold incubation buffer (composition: 1.2 mM MgCl2, 22 mM HEPES, 11 mM glucose, 3 mM KCl, 136 mM choline chloride, pH adjusted to 7.3 with TRIS base) was added slowly to the suspension for a total volume of 30 to 40 mL. This mixture was centrifuged at 7,000 rpm (5,856 g) for 5 minutes. The supernatant was discarded, and the pellet was resuspended in 5 mL of incubation buffer per gram of original wet weight of brain. This synaptosomal suspension was kept on ice until the start of the assay, at which time 35 μL of synaptosome suspension were added to each well of a 96-well filter plate (Millipore) which contained 75 μL incubation buffer with or without drug. Drugs were dissolved in DMSO or H2 O, and the concentration of DMSO was less than or equal to 1%.
Synaptosomes were pre-incubated in the presence or absence of drug for 5 minutes at room temperature before the addition of radioactive calcium. Drugs were present throughout the assay. Two μCi/mL stocks of ^45 CaCl2 were prepared in basal buffer (composition: incubation buffer plus 1 mM CaCl2) and in stimulation buffer (composition: 1.2 mM MgCl2, 22 mM HEPES, 11 mM glucose, 37 mM KCl, 102 mM choline chloride, 1 mM CaCl2, pH adjusted to 7.3 with TRIS base). One hundred microliter of radioactive basal or stimulation buffer were pipetted into a pre-incubated plate of synaptosomes using a Quadra 96 pipetter (Tomtec). The final KCl concentration was 3 mM for the basal condition and 20 mM for the stimulated condition; the final CaCl2 concentration was 0.5 mM with 1 μCi/mL of ^45 CaCl2. The plate was filtered under vacuum after a 30-second incubation with radioactivity. The filters were washed twice with 200 μL of wash buffer (composition: 140 mM choline chloride, 3 mM EGTA, 22 mM HEPES, pH adjusted to 7.3 with TRIS base). Plates were allowed to dry completely. Scintillation fluid was added (20 μL/well), and the plates were counted in a Wallace Microbeta plate counter. Basal ^45 CaCl2 flux (3 mM KCl) was subtracted from stimulated ^45 CaCl2 flux (20 mM KCl) in both control and drug-treated conditions, and data were expressed as percent inhibition of the adjusted control response. Values obtained in this way were plotted as a function of drug concentration and IC50 values were calculated.

The target of assay [2] is T2, N-type calcium channels (IMR-32 cells) (Homo sapiens, UniProt Q00975).
T2 construct: host or cells: IMR-32, differentiated with dibutyryl cAMP and bromodeoxyuridine
Description: N-type Ca2+ channel blocking potency in IMR-32 cells using fluorescent Ca2+ indicator Indo-1. The class given is cell-based. The conditions noted are these: K+ depolarization, 5 μM nitrendipine present to block L-type channels, 10 min at 30° C., read-out: Inhibition of ^45 Ca^+2 Influx in IMR-32 Cells IC50. The procedure:
as §1
IMR-2 cells are a human tumoral cell line of neural origin. […] Calcium flux into these cells may be induced by stimulation with elevated potassium concentrations. The L-channel component of calcium flux may be blocked by adding 5 μM nitrendipine. The remaining component of calcium entry into the IMR-32 cells is due to calcium flux through N-type calcium channels. Intracellular calcium concentrations are measured using the fluorescent calcium indicator Indo-1. The effect of drug concentration on calcium uptake is studied.
The IMR-32 cell line was obtained from the American Type Culture Collection (Rockville, Md.). Cells were grown in Eagle's Minimum Essential Medium with Earle's salts supplemented with 10% fetal bovine serum, 2 mM L-Gln and antibiotic/antimicotic mixture (Gibco). At approximately 80% confluency, differentiation was induced by the addition of 1 mM dibutyryl cAMP and 2.5 μM bromodeoxyuridine to the medium. After 7 to 13 days of differentiation, cells were detached using 0.5 mM EDTA and loaded with 5 μM Indo-1 acetoxymethyl ester (Molecular Probes, Eugene, Or.) at 30° C. for 45 minutes. Loaded cells were washed twice, resuspended (~10^7 cells/mL) in assay buffer (10 mM HEPES/Tris pH 7.4 in Hank's Balanced Salt Solution without bicarbonate or phenol red containing 0.5% bovine serum albumin) and kept on ice until use. Fluorescence measurements were carried out in a Photon Technology International (PTI, South Brunswick, N.J.) Model RF-F3004 spectrofluorometer with dual emission monochromators using excitation at 350 nm and emission at 400 and 490 nm. The instrument was equipped with a thermostatted cuvette holder with stirring capabilities as well as with a computer-controlled pump which allowed for reagent addition during measurement. Instrument control and data collection was done by PTI's OSCAR software running on an IBM compatible computer. Different concentrations of the test compounds (60 μL in dimethyl sulfoxide) were added to 5.94 mL of assay buffer containing approximately 3×10^6 loaded cells, and 5 μM Nitrendipine (in 30 μL EtOH) to block L-type Ca^2+ channels. Samples were incubated for 10 minutes at 30° C. and then aliquoted into three 10×10 mm disposable acrylic cuvettes. Emission signals at 400 and 490 nm were acquired from each cuvette at 30° C. for 50 seconds. At 20 seconds after the start of reading, cells were depolarized by the addition of 160 μL of stimulation solution (1M KCl, 68 mM CaCl2) to the cuvette via the computer-controlled pump. Ratio of dual emission signals (400 nm/490 nm), which is proportional to intracellular Ca^2+ concentration, was plotted against time, and the difference between maximal response after stimulation and basal value (before stimulation) was determined. Values obtained in this way were plotted as a function of drug concentration. IC50 values of test compounds were calculated by fitting a 4-parameter logistic function to the data using the least squares method.

Assay [3] deals with N-type calcium channel. The conditions noted are these: cited: Bowersox et al. 1994; cited from earlier work.

T2 sequence (Q00975 whole entry): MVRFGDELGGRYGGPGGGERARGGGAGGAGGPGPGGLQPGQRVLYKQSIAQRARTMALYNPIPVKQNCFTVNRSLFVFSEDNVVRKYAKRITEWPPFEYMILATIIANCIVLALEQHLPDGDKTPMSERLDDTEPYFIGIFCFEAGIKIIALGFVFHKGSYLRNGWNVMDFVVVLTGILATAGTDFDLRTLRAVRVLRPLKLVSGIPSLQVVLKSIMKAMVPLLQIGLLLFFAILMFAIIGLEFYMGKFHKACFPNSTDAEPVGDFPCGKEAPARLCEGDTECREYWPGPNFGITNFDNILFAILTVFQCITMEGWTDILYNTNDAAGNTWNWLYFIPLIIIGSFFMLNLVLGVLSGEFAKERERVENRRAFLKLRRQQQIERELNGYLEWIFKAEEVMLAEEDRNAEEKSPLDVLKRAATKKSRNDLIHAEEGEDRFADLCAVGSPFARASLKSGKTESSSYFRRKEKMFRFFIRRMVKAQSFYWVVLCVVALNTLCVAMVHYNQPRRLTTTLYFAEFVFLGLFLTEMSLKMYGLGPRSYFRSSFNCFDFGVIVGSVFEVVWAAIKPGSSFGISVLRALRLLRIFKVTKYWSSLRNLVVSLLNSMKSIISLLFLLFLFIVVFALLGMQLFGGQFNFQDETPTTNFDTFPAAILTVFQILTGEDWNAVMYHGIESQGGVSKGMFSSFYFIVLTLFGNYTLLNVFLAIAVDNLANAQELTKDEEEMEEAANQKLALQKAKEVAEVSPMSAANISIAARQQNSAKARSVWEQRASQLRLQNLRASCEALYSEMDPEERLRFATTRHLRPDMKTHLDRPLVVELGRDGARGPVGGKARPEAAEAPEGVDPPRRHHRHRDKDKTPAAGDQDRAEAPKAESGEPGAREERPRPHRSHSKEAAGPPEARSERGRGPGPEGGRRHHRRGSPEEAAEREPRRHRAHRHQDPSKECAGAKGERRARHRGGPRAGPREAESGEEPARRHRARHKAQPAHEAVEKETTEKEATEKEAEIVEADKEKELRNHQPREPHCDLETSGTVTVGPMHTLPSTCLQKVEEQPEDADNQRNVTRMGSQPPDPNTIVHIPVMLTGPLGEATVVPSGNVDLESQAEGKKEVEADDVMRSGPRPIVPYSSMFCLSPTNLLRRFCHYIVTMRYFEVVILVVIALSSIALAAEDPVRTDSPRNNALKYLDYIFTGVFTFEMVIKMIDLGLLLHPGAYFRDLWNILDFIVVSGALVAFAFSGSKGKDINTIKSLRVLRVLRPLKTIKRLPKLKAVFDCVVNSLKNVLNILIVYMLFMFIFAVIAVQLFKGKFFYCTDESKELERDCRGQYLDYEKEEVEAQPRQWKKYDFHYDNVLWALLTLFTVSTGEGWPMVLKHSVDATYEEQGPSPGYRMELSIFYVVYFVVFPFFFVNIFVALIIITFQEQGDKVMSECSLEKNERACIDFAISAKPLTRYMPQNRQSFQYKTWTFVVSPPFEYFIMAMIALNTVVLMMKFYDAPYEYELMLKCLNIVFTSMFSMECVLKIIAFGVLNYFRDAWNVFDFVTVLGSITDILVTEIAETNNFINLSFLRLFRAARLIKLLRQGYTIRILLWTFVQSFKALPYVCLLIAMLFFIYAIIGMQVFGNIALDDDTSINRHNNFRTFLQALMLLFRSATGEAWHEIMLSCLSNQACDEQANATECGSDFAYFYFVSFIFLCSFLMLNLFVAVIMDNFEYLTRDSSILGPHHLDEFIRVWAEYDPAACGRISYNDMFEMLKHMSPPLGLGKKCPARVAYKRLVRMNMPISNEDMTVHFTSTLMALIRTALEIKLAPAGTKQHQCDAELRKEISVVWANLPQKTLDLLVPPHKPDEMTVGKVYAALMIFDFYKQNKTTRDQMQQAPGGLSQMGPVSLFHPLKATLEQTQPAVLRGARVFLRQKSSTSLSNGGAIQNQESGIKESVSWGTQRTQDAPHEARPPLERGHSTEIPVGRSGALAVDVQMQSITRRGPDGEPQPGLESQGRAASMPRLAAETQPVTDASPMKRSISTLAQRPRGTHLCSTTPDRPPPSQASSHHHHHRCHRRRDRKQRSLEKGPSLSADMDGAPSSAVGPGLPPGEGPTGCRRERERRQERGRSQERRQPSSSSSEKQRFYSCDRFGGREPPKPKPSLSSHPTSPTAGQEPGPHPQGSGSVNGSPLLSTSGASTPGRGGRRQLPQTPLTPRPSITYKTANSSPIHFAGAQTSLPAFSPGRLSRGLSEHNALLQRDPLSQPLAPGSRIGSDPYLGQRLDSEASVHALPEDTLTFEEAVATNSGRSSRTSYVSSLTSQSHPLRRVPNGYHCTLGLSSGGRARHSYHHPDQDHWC
T2 sequence (P54289 25-944 partner limits assumed): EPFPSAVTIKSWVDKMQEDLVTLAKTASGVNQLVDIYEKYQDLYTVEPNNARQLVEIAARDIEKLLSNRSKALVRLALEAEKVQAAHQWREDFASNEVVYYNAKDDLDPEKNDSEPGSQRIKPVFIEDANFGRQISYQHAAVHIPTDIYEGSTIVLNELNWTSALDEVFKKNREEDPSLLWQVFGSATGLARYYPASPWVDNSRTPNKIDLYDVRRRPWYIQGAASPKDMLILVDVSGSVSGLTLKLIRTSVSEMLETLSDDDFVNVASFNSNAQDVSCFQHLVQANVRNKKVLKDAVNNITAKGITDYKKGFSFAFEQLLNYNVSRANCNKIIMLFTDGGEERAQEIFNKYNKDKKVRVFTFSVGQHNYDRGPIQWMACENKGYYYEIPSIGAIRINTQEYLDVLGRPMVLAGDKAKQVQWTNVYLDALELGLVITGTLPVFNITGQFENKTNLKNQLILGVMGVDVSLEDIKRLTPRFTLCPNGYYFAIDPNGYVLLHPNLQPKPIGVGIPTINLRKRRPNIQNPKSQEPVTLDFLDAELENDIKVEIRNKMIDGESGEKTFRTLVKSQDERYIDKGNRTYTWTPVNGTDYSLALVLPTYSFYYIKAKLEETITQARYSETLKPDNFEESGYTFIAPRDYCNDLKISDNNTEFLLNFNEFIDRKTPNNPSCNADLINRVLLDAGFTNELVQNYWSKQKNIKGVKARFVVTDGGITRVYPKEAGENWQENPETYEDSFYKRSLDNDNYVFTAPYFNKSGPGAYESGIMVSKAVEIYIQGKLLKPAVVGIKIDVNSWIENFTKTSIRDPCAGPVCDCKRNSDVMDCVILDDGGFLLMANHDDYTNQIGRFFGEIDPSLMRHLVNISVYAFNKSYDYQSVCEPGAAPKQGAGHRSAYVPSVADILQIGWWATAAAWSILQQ
T2 sequence (P54289 945-1103 partner limits assumed): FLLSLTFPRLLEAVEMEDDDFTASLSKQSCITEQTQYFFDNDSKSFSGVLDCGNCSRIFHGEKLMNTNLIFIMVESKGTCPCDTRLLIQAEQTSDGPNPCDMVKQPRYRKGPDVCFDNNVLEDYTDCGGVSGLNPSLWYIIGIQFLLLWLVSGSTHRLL

On to `CC(CCC(O)(c1ccccc1)c1ccccc1)(c1ccc(O)c(CN2CCCCCC2)c1)c1ccc(O)c(CN2CCCCCC2)c1` [Example 3, 4,4'-(4-Hydroxy-1-methyl-4,4-diphenylbutylidene)bis[2-[(hexahydro-1H-azepin-1-yl)methyl]phenol] oxalic acid salt], for which the IC50 stood at 1400 nM in assay [1] and 490 nM in assay [2].
On to `CC(CCC(c1ccccc1)c1ccccc1)(c1ccc(O)c(CN2CCCCCC2)c1)c1ccc(O)c(CN2CCCCCC2)c1` [Example 6, 4,4'-(1-Methyl-4,4-diphenylbutylidene)bis[2-[(hexahydro-1H-azepin-1-yl)methyl]phenol] oxalic acid salt], for which the values for the IC50 in assay [1] and in assay [2] were 3150 nM and 740 nM, respectively.
The like results for `CC(CCCN(Cc1ccccc1)Cc1ccccc1)(c1ccc(O)c(CN2CCCCCC2)c1)c1ccc(O)c(CN2CCCCCC2)c1` [Example 10, 4,4'-[4-[Bis(phenylmethyl)amino]-1-methylbutylidene]-bis[2-[(hexahydro-1H-azepin-1yl)methyl]phenol] oxalic acid salt] were, in that order, 4200 nM and 430 nM.
For `O=C(NCC(c1ccc(O)c(CN2CCCCCC2)c1)c1ccc(O)c(CN2CCCCCC2)c1)c1ccccc1` [Example 19, N-[2,2-Bis-(3-azepan-1-ylmethyl-4-hydroxyphenyl)ethyl]-benzamide oxalic acid salt], in that order: 2400 nM and 17000 nM.
Consider `O=C(NCC(c1ccc(O)c(CN2CCCCCC2)c1)c1ccc(O)c(CN2CCCCCC2)c1)C(c1ccccc1)c1ccccc1` [Example 20, N-[2,2 -Bis-(3-azepan-1-ylmethyl-4-hydroxyphenyl)ethyl]-2,2-diphenylacetamide oxalic acid salt], for which the IC50 in assay [1] turned out to be 2400 nM.
Regarding `CC(NC(=O)c1ccccc1)C(c1ccc(O)c(CN2CCCCCC2)c1)c1ccc(O)c(CN2CCCCCC2)c1` (stereo not drawn) [Example 21, N-[2,2-Bis-(3-azepan-1-ylmethyl-4-hydroxyphenyl)-1-methylethyl]benzamide oxalic acid salt], the IC50 is 2200 nM in assay [1] and 14000 nM in assay [2].
As to “SNX-111: selective N-type calcium channel blocker, SNX-111 (CKGKGAKCSRLMYDCCTGSCRSGKC-NH2; disulfide 1-16, 15-25, 8-20; UniProt P05484 46-70, looked up)”, the “activity in a number of models of ischemia and pain” value in assay [3] is given as “demonstrated activity”.

In general, IC50 refers to the concentration that inhibits the measured activity by half.
